In patent US9067922B2, “Chemical compounds” (Pfizer Limited, priority 2013, dated 2015):

Target: URAT-1 transporter (Homo sapiens (Human), UniProt Q96S37)
Experiment: URAT-1 inhibitor activity: [14C]-uric acid uptake in CHO-URAT1(L)GFP#8 (CHO#8) cells, scintillation proximity
Type: cell-based
Details: inhibition of [14C]-uric acid (30 nM) uptake into CHO#8 cells; compound 0 to 10 μM; 4 parameter logistic fit
Outline: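 CHO cells stably expressing human URAT1 long isoform–eGFP fusion, pre-incubated 1 h in chloride-containing buffer pH 7.4, then given 30 nM [14C]-uric acid with compound (0–10 μM, 0.25% DMSO) in chloride-free gluconate buffer pH 7.4. Uptake measured by scintillation proximity on Cytostar plates.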

Chain of URAT-1 transporter (Q96S37 other isoform, or with tags, fused parts or gaps): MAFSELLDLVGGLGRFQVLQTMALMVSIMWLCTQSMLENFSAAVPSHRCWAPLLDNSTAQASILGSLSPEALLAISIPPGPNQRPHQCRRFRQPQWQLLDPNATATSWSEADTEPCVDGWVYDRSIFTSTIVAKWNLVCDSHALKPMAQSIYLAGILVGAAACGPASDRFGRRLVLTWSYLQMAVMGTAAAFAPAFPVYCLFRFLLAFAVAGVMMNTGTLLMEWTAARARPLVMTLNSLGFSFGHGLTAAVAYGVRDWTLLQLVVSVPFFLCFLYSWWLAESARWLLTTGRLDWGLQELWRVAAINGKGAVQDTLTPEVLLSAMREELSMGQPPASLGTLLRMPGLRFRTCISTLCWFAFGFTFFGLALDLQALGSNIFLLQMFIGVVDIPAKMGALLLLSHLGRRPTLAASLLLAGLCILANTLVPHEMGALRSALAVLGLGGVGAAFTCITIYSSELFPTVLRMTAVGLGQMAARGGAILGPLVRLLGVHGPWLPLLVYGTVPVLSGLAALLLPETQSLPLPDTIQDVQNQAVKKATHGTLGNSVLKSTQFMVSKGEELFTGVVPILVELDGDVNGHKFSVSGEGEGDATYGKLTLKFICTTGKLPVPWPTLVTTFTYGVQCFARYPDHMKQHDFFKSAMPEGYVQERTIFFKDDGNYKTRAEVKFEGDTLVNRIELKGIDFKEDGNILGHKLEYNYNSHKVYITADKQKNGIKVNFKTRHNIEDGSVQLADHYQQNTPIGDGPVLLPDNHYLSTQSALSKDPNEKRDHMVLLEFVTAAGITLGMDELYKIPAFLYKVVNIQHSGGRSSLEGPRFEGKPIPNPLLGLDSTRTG

| Compound | IC50 |
| --- | --- |
| N#Cc1cc(S(=O)(=O)Nc2cccnn2)ccc1Oc1ccc(Cl)cc1OC(F)F [Example 86, 4-[4-chloro-2-(difluoromethoxy)phenoxy]-3-cyano-N-(pyridazin-3-yl)benzenesulfonamide] | > 5330 nM |
| N#Cc1ccc(Oc2ccc(S(=O)(=O)Nc3ccncn3)cc2C#N)cc1Cl [Example 87, 4-(3-chloro-4-cyanophenoxy)-3-cyano-N-(pyrimidin-4-yl)benzenesulfonamide] | > 7670 nM |
| N#Cc1ccc(Oc2ccc(S(=O)(=O)Nc3ncccn3)cc2C#N)cc1Cl [Example 90, 4-(3-chloro-4-cyanophenoxy)-3-cyano-N-(pyrimidin-2-yl)benzenesulfonamide] | > 3580 nM |
| N#Cc1ccc(Oc2ccc(S(=O)(=O)Nc3ncc(F)cn3)cc2C#N)cc1Cl [Example 91, 4-(3-chloro-4-cyanophenoxy)-3-cyano-N-(5-fluoropyrimidin-2-yl)benzenesulfonamide] | 1950 nM |
| N#Cc1ccc(Oc2ccc(S(=O)(=O)Nc3cnccn3)cc2C#N)cc1Cl [Example 93, 4-(3-chloro-4-cyanophenoxy)-3-cyano-N-(pyrazin-2-yl)benzenesulfonamide] | 2980 nM |
| N#Cc1ccc(Oc2ccc(S(=O)(=O)Nc3ccnnc3)cc2C#N)cc1Cl [Example 94, 4-(3-chloro-4-cyanophenoxy)-3-cyano-N-(pyridazin-4-yl)benzenesulfonamide] | > 10000 nM |
| N#Cc1ccc(Oc2cc(F)c(S(=O)(=O)Nc3ccc(F)cn3)cc2F)cc1F [Example 95, 4-(4-cyano-3-fluorophenoxy)-2,5-difluoro-N-(5-fluoropyridin-2-yl)benzenesulfonamide] | > 10000 nM |
| N#Cc1ccc(Oc2ccc(S(=O)(=O)Nc3cncnc3)cc2C#N)cc1Cl [Example 96, 4-(3-chloro-4-cyanophenoxy)-3-cyano-N-(pyrimidin-5-yl)benzenesulfonamide] | > 10000 nM |
| N#Cc1ccc(Oc2ccc(S(=O)(=O)Nc3ccc(F)cn3)cc2F)cc1F [Example 97, 4-(4-cyano-3-fluorophenoxy)-3-fluoro-N-(5-fluoropyridin-2-yl)benzenesulfonamide] | > 1670 nM |
| N#Cc1ccc(Oc2ccc(S(=O)(=O)Nc3cccnn3)cc2C#N)cc1Cl [Example 98, 4-(3-chloro-4-cyanophenoxy)-3-cyano-N-(pyridazin-3-yl)benzenesulfonamide] | 3870 nM |
| N#Cc1ccc(Oc2ccc(S(=O)(=O)Nc3ccncc3)cc2C#N)cc1Cl [Example 100, 4-(3-chloro-4-cyanophenoxy)-3-cyano-N-(pyridin-4-yl)benzenesulfonamide] | > 10000 nM |
| Cc1cccnc1NS(=O)(=O)c1ccc(Oc2ccc(C#N)c(Cl)c2)c(C#N)c1 [Example 101, 4-(3-chloro-4-cyanophenoxy)-3-cyano-N-(3-methylpyridin-2-yl)benzenesulfonamide] | 594 nM |
| COc1cccnc1NS(=O)(=O)c1ccc(Oc2ccc(C#N)c(Cl)c2)c(C#N)c1 [Example 102, 4-(3-chloro-4-cyanophenoxy)-3-cyano-N-(3-methoxypyridin-2-yl)benzenesulfonamide] | 3130 nM |
| Cc1cc(Oc2ccc(S(=O)(=O)Nc3ccc(F)cn3)cc2C#N)cc(C(C)C)c1 [Example 105, 3-cyano-N-(5-fluoropyridin-2-yl)-4-[3-methyl-5-(propan-2-yl)phenoxy]benzenesulfonamide] | > 10000 nM |
| COc1ccc(Cl)cc1Oc1ccc(S(=O)(=O)Nc2ccc(F)cn2)cc1C#N [Example 106, 4-(5-chloro-2-methoxyphenoxy)-3-cyano-N-(5-fluoropyridin-2-yl)benzenesulfonamide] | > 10000 nM |
| Cc1cc(Oc2ccc(S(=O)(=O)Nc3ccc(F)cn3)cc2C#N)c(Cl)cc1Cl [Example 109, 3-cyano-4-(2,4-dichloro-5-methylphenoxy)-N-(5-fluoropyridin-2-yl)benzenesulfonamide] | 892 nM |
| CCN(CC)c1cccc(Oc2ccc(S(=O)(=O)Nc3ccc(F)cn3)cc2C#N)c1 [Example 113, 3-cyano-4-[3-(diethylamino)phenoxy]-N-(5-fluoropyridin-2-yl)benzenesulfonamide] | > 10000 nM |
| CCOc1ccc(Oc2ccc(S(=O)(=O)Nc3ccc(F)cn3)cc2C#N)cc1Cl [Example 116, 4-(3-chloro-4-ethoxyphenoxy)-3-cyano-N-(5-fluoropyridin-2-yl)benzenesulfonamide] | > 10000 nM |
| CC(C)c1ncc(Oc2ccc(S(=O)(=O)Nc3ccc(F)cn3)cc2C#N)cc1Cl [Example 117, 4-{[5-chloro-6-(propan-2-yl)pyridin-3-yl]oxy}-3-cyano-N-(5-fluoropyridin-2-yl)benzenesulfonamide] | > 10000 nM |
| N#Cc1cc(S(=O)(=O)Nc2ccc(F)cn2)ccc1Oc1cccc(C2CC2)c1 [Example 118, 3-cyano-4-(3-cyclopropylphenoxy)-N-(5-fluoropyridin-2-yl)benzenesulfonamide] | > 10000 nM |
| COc1ccc(F)cc1Oc1ccc(S(=O)(=O)Nc2ccc(F)cn2)cc1C#N [Example 120, 3-cyano-4-(5-fluoro-2-methoxyphenoxy)-N-(5-fluoropyridin-2-yl)benzenesulfonamide] | > 10000 nM |
| CC(C)COc1ccc(Oc2ccc(S(=O)(=O)Nc3ccc(F)cn3)cc2C#N)cn1 [Example 121, 3-cyano-N-(5-fluoropyridin-2-yl)-4-{[6-(2-methylpropoxy)pyridin-3-yl]oxy}benzenesulfonamide] | > 10000 nM |
| N#Cc1cc(S(=O)(=O)Nc2ccc(F)cn2)ccc1Oc1c(F)cccc1F [Example 124, 3-cyano-4-(2,6-difluorophenoxy)-N-(5-fluoropyridin-2-yl)benzenesulfonamide] | > 10000 nM |
| CC(C)c1ccc(Oc2ccc(S(=O)(=O)Nc3ccc(F)cn3)cc2C#N)cc1 [Example 126, 3-cyano-N-(5-fluoropyridin-2-yl)-4-[4-(propan-2-yl)phenoxy]benzenesulfonamide] | > 10000 nM |

Now those with a lower IC50, led by results:

| IC50 | Compound |
| --- | --- |
| 429 nM | N#Cc1ccc(Oc2ccc(S(=O)(=O)Nc3cccnn3)cc2C#N)cc1F [Example 88, 3-cyano-4-(4-cyano-3-fluorophenoxy)-N-(pyridazin-3-yl)benzenesulfonamide] |
| 105 nM | N#Cc1ccc(Oc2ccc(S(=O)(=O)Nc3ccccn3)cc2C#N)cc1Cl [Example 89, 4-(3-chloro-4-cyanophenoxy)-3-cyano-N-(pyridin-2-yl)benzenesulfonamide] |
| 414 nM | N#Cc1ccc(Oc2ccc(S(=O)(=O)Nc3cccnc3)cc2C#N)cc1Cl [Example 92, 4-(3-chloro-4-cyanophenoxy)-3-cyano-N-(pyridin-3-yl)benzenesulfonamide] |
| 29 nM | N#Cc1ccc(Oc2ccc(S(=O)(=O)Nc3ccc(F)cn3)c(F)c2)cc1F [Example 99, 4-(4-cyano-3-fluorophenoxy)-2-fluoro-N-(5-fluoropyridin-2-yl)benzenesulfonamide] |
| 145 nM | N#Cc1ccc(Oc2ccc(S(=O)(=O)Nc3ncccc3F)cc2C#N)cc1Cl [Example 103, 4-(3-chloro-4-cyanophenoxy)-3-cyano-N-(3-fluoropyridin-2-yl)benzenesulfonamide] |
| 15 nM | N#Cc1ccc(Oc2ccc(S(=O)(=O)Nc3cc(F)ccn3)cc2C#N)cc1Cl [Example 104, 4-(3-chloro-4-cyanophenoxy)-3-cyano-N-(4-fluoropyridin-2-yl)benzenesulfonamide] |
| 58 nM | N#Cc1cc(S(=O)(=O)Nc2ccc(F)cn2)ccc1Oc1cc(Cl)c(F)cc1Cl [Example 107, 3-cyano-4-(2,5-dichloro-4-fluorophenoxy)-N-(5-fluoropyridin-2-yl)benzenesulfonamide] |
| 98 nM | Cc1ccc(F)c(Oc2ccc(S(=O)(=O)Nc3ccc(F)cn3)cc2C#N)c1Cl [Example 108, 4-(2-chloro-6-fluoro-3-methylphenoxy)-3-cyano-N-(5-fluoropyridin-2-yl)benzenesulfonamide] |
| 123 nM | CCOc1cc(Cl)ccc1Oc1ccc(S(=O)(=O)Nc2ccc(F)cn2)cc1C#N [Example 110, 4-(4-chloro-2-ethoxyphenoxy)-3-cyano-N-(5-fluoropyridin-2-yl)benzenesulfonamide] |
| 74 nM | COc1cccc(F)c1Oc1ccc(S(=O)(=O)Nc2ccc(F)cn2)cc1C#N [Example 111, 3-cyano-4-(2-fluoro-6-methoxyphenoxy)-N-(5-fluoropyridin-2-yl)benzenesulfonamide] |
| 177 nM | COc1c(F)ccc(Oc2ccc(S(=O)(=O)Nc3ccc(F)cn3)cc2C#N)c1Cl [Example 112, 4-(2-chloro-4-fluoro-3-methoxyphenoxy)-3-cyano-N-(5-fluoropyridin-2-yl)benzenesulfonamide] |
| 69 nM | COc1cccc(Cl)c1Oc1ccc(S(=O)(=O)Nc2ccc(F)cn2)cc1C#N [Example 114, 4-(2-chloro-6-methoxyphenoxy)-3-cyano-N-(5-fluoropyridin-2-yl)benzenesulfonamide] |
| 24 nM | COc1cccc(C)c1Oc1ccc(S(=O)(=O)Nc2ccc(F)cn2)cc1C#N [Example 115, 3-cyano-N-(5-fluoropyridin-2-yl)-4-(2-methoxy-6-methylphenoxy)benzenesulfonamide] |
| 90 nM | Cc1ccc(F)c(Oc2ccc(S(=O)(=O)Nc3ccc(F)cn3)cc2C#N)c1F [Example 119, 3-cyano-4-(2,6-difluoro-3-methylphenoxy)-N-(5-fluoropyridin-2-yl)benzenesulfonamide] |
| 99 nM | N#Cc1cc(S(=O)(=O)Nc2ccc(F)cn2)ccc1Oc1ccc(Cl)c(Cl)c1 [Example 122, 3-cyano-4-(3,4-dichlorophenoxy)-N-(5-fluoropyridin-2-yl)benzenesulfonamide] |
| 91 nM | Cc1cccc(Cl)c1Oc1ccc(S(=O)(=O)Nc2ccc(F)cn2)cc1C#N [Example 123, 4-(2-chloro-6-methylphenoxy)-3-cyano-N-(5-fluoropyridin-2-yl)benzenesulfonamide] |
| 237 nM | CCOc1ncc(Oc2ccc(S(=O)(=O)Nc3ccc(F)cn3)cc2C#N)cc1Cl [Example 125, 4-[(5-chloro-6-ethoxypyridin-3-yl)oxy]-3-cyano-N-(5-fluoropyridin-2-yl)benzenesulfonamide] |
